What was measured:
[1] = molecular target: T1, transketolase (TK) in colon carcinoma HCT116 cells (Homo sapiens, UniProt P29401); test: Cellular transketolase inhibition assay in HCT116; type: cell-based; conditions: colon carcinoma HCT116, thiamine-free DMEM, 48 h after compound treatment, TK activity in lysate
T1 construct: endogenous in cells; host or cells: HCT116
T1 sequence (P29401 1-623): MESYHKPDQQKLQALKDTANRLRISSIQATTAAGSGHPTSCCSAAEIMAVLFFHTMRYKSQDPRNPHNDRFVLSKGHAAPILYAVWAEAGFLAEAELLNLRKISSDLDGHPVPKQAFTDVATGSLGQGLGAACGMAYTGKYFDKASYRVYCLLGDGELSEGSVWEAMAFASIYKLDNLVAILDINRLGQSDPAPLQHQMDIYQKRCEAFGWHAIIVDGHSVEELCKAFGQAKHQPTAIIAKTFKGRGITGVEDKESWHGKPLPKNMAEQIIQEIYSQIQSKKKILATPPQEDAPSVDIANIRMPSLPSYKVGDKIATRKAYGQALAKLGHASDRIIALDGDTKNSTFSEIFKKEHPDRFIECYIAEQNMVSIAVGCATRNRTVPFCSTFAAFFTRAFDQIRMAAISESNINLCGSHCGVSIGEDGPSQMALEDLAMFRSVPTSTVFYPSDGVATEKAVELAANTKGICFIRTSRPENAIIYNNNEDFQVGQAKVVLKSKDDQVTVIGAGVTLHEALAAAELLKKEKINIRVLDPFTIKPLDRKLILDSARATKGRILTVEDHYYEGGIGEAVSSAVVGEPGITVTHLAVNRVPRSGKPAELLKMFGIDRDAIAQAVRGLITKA
Procedure: Determining Inhibition Constants of TPP Mimetics in Cellular Assay
Log-phase cells were trypsinized, washed and resuspended in thiamine-free DMEM. Optimization of the initial cell counts was carried out for each cell line prior to IC50 measurements. […] Using this initial cell count, IC50 could be monitored for six days.
Media containing 8,000 cells (95 μl) were used to seed individual wells in a 96-well clear-bottom cell cultured-treated sterile plate. Inhibitor compounds were dissolved in 100% DMSO as 10 mM solutions. Serial dilutions were then made in 100% DMSO to make up a 100× stock, then diluted to 20× in double-deionized H2O (ddH2O). Twenty-four hours after seeding, 5 μl of 20× inhibitor compound stock solution was added to the cells so that the final concentration of DMSO was 1%. Media were changed after 24 hours. Forty-eight hours after inhibitor compound treatment, the plates were inverted to remove media and blotted on a paper towel. The plates were then either subjected to enzymatic reactions immediately or were frozen at −20° C. for future assays.
Lysis buffer (20 mM HEPES, pH 7.5, 1 mM EDTA, 0.2 g/l Triton X-100® and 0.2 g/L sodium deoxycholate, supplemented with 1 mM DTT and 1 mM PMSF just before use, 80 μl) were added to each well of the assay plate and allow cell lysis at RT with shaking. Then 15 ul of 5× assay buffer containing final concentrations of 50 mM HEPES, 40 mM KCl, 2.5 mM MgCl2, 5 mM NaArsenate, 1 mM NAD, 2 unit/ml glyceraldehyde-3-phosphate dehydrogenase (GAPDH) was added to the 80 ul of lysate. Reaction kinetics were monitored on a fluorescent plate reader to allow any possible background activity via GAPDH to burn out. Then 5 ul of substrate mix containing final concentrations of 0.5 mM ribose-5-phosphate and 0.5 mM xylulose-5-phosphate was added to initiate the reaction. Monitor reaction kinetics were monitored using a fluorescent plate reader and the slope of the initial linear range was recorded as the velocity of the reaction (FU/min). Enzymatic inhibition was expressed as percent of control wells that were not treated with compounds. The values (y) were plotted as function of the log concentration (x) and fitted to a sigmoidal dose-response curve with variable slopes that bears the equation: y-bottom+(top-bottom)/(1+10̂((log EC50−x)*hillslope)).

[2] = molecular target: T2, transketolase (purified TK apo enzyme) (Homo sapiens, UniProt P29401); test: TPK-apoTK coupled cell-free TK inhibition assay (pyrophosphorylated compounds competing with TPP); type: biochemical; conditions: compound enzymatically pyrophosphorylated by TPK1; 100 nM TK, 20 μM TPP
T2 sequence (P29401 1-623): T1 sequence (P29401 1-623)
Procedure: Determining Inhibition Constants of TPP Mimetics in Cell Free Assay (Purified TK apo Enzyme) Compounds scored as TPK1 substrates were then enzymatically converted to pyrophosphate and assessed for an ability to compete with TPP in inhibiting TK activity. The TK inhibition assay was carried out as follows. The pyrophosphorylation reaction mix consisted of 50 mM HEPES, 1 mM DTT, 1 mM MgCl2, pH 8.0, 1 to 10 mM thiamine analog, and 40 mM Mg-ATP. TKP1 (46.2 μg) was added in 10 μL aliquots every hour for 5 hours. The reaction mix was then incubated overnight at 4° C. TPK1 was removed by ultra-filtration using a 10,000 MWCO filter. The extent of reaction was monitored as described above. […] The above reaction mix (40 μL) was placed in a well of a Costar 3695 half-area plate and pre-incubated at room temperature for 30 min. It was then incubated for 2 minutes at 30° C. The reaction was initiated with the addition of 10 μL pentose phosphates (xylulose 5-phosphate and ribose 5-phosphate) with a final concentration of 0.5 mM. The reaction was monitored at 340 nm using a Molecular Devices Spectramax M2 plate reader. “TPK-TK” in the second column in Table 1 designates the thiamine pyrophosphate kinase/transketolase coupled reaction.

Row | SMILES | IC50 [1] | IC50 [2]
1 | Cc1c(CCO)sc[n+]1Cc1cccnc1 | 731 nM | 70.7 nM
2 | COC(=O)c1cncc(C[n+]2csc(CCO)c2C)c1 | > 100000 nM | 382 nM
3 | Cc1c(CCO)sc[n+]1Cc1ccncc1 | > 100000 nM | 421 nM
4 | Cc1ccc(C[n+]2csc(CCO)c2CO)c(N)n1 | 236 nM | 25.1 nM
5 | Cc1c(CCO)sc[n+]1Cc1ccc(C#N)nc1N | 354 nM | 57.1 nM
6 | Cc1c(CCO)sc[n+]1Cc1ccc(N)nc1 | 1610 nM | 6.95 nM
7 | Cc1ccc(C[n+]2c(Cc3cccnc3)sc(CCO)c2C)c(N)n1 | 838 nM | –
8 | Cc1c(CCO)sc[n+]1Cc1ccsc1C(N)=O | > 33000 nM | –
9 | Cc1ccc(C[n+]2c(C(C)O)sc(CCO)c2C)c(N)n1 (stereo not shown) | 34 nM | 91.4 nM
10 | Cc1ccc(C[n+]2csc(CCO)c2)c(N)n1 | 9540 nM | 29.1 nM
11 | Cc1cc(C)c(C[n+]2csc(C(O)CO)c2C)c(N)n1 (stereo not shown) | 3160 nM | 90 nM
12 | CCc1c(CCO)sc[n+]1Cc1ccc(C)nc1N | 1720 nM | –
13 | CCc1ccc(C[n+]2csc(CCO)c2C)c(N)n1 | 74 nM | –
14 | Cc1c(CCO)sc[n+]1Cc1ccc(C(=O)O)cc1 | > 100000 nM | –
15 | Cc1c(CCO)sc[n+]1Cc1cccnc1C#N | > 33000 nM | 123 nM
16 | COC(=O)CCc1sc[n+](Cc2ccc(C)nc2N)c1C | 2330 nM | –
17 | Cc1c(CCO)sc[n+]1Cc1ccsc1C#N | > 33000 nM | 138 nM
18 | CCc1sc(CCO)c(C)[n+]1Cc1ccc(C)nc1N | 26 nM | 75.5 nM
19 | Cc1c(CCO)sc[n+]1Cc1ccc(N2C(=O)c3ccccc3C2=O)nc1 | 3150 nM | 143 nM
20 | Cc1ccc(C[n+]2csc([C@@H](O)CO)c2C)c(N)n1 | 2200 nM | 26.8 nM

Row | SMILES | IC50 [1] | IC50 [2]
21 | Cc1c(CCO)sc[n+]1Cc1ccccc1 | > 100000 nM | 336 nM
22 | Cc1ccc(C[n+]2c(C)sc(CO)c2C)c(N)n1 | 237 nM | –
23 | Cc1c(CCO)sc[n+]1Cc1ccccc1[N+](=O)[O-] | > 100000 nM | 109 nM
24 | Cc1ccc(C[n+]2c(-c3ccc4c(c3)OCO4)sc(CCO)c2C)c(N)n1 | 25500 nM | –
25 | Cc1c(CCO)sc[n+]1Cc1ccccc1N | > 100000 nM | 198 nM
26 | Cc1ccc(C[n+]2csc(C(O)CO)c2C)c(N)n1 (stereo not shown) | 269 nM | 53.4 nM
27 | CC(=O)Nc1ccc(C[n+]2csc(CCO)c2C)cc1 | 24300 nM | 8.83 nM
28 | Cc1c(CCO)sc[n+]1Cc1ccc(Cl)nc1N | 156 nM | –
29 | Cc1cc(C[n+]2csc(CCO)c2C)no1 | 5150 nM | –
30 | Cc1c(CCO)sc[n+]1Cc1cccnc1N | 111 nM | 36.5 nM
31 | Cc1c(CCO)sc[n+]1Cc1ccccn1 | > 100000 nM | –
32 | Cc1ccc(C[n+]2c(C)sc(CCO)c2C)c(N)n1 [drawing 48] | 31 nM | –
33 | CC(=O)Nc1ccc(C[n+]2csc(CCO)c2C)c(N)n1 | 803 nM | 22.5 nM
34 | Cc1ccc(C[n+]2csc(CCC#N)c2C)c(N)n1 | 2170 nM | –
35 | Cc1c(CCO)sc[n+]1Cc1ccc(C(F)(F)F)nc1N | 119 nM | 104 nM
36 | Cc1ccc(C[n+]2c(C)sc(CCO)c2C)c(N)n1 [drawing 55] | 49 nM | 24.6 nM
37 | Cc1c(CCO)sc[n+]1Cc1cncnc1 | > 100000 nM | 1430 nM
38 | Cc1ccc(C[n+]2cc(CCO)sc2C)c(N)n1 | 489 nM | 35.6 nM
39 | Cc1cnc(C[n+]2csc(CCO)c2C)c(N)n1 | 408 nM | 15.2 nM
40 | Cc1c(CCO)sc[n+]1Cc1cccc(N2C(=O)c3ccccc3C2=O)n1 | > 100000 nM | –

Row | SMILES | IC50 [1] | IC50 [2]
41 | Cc1ccc(C[n+]2csc(CCO)c2C)c(N)n1 | 30 nM | 22 nM
42 | Cc1c(CCO)sc[n+]1Cc1cnccc1N | 23900 nM | 64.2 nM
43 | COc1ncc(CO)c(N)n1 | > 100000 nM | –
44 | Cc1cc(C)c(C[n+]2csc(CCO)c2C)c(N)n1 | 131 nM | 33.8 nM
45 | Cc1ncc(C[n+]2c(C(C)O)sc(CCO)c2C)c(N)n1 (stereo not shown) | > 100000 nM | 851 nM
46 | Cc1cncc(C[n+]2csc(CCO)c2C)c1 | 37800 nM | –
47 | Cc1cc(C)c(C[n+]2csc(CCO)c2)c(N)n1 | 12500 nM | –
48 | Cc1ccc(C[n+]2csc([C@H](O)CO)c2C)c(N)n1 | 62 nM | 28.1 nM
49 | Cc1ccc(C[n+]2csc(CCCO)c2C)c(N)n1 | 1030 nM | –
50 | Cc1cnc(N)c(C[n+]2csc(CCO)c2C)c1 | 862 nM | 109 nM
51 | Cc1cc(C)c(C[n+]2cc(CCO)sc2C)c(N)n1 | 26300 nM | –
52 | Cc1c(CCO)sc[n+]1Cc1cncc(C#N)c1 | 119000 nM | 294 nM
53 | Cc1c(CCO)sc[n+]1Cc1cc([N+](=O)[O-])ccc1O | > 100000 nM | –
54 | Cc1c(CCO)sc[n+]1Cc1nccnc1N | 16500 nM | 61.2 nM
55 | Cc1ncc(C[n+]2csc(CCO)c2C)c(=O)[nH]1 | 76 nM | –
56 | Cc1ncc(C[n+]2c(C)sc(CCO)c2C)c(N)n1 | 214 nM | –
57 | COc1ccc(C[n+]2csc(CCO)c2C)c(NC(C)=O)n1 | 170000 nM | –
58 | Cc1c(CCO)sc[n+]1Cc1ccc(C(F)(F)F)nc1 | 471 nM | 387 nM
59 | CC(=O)OCCc1sc[n+](Cc2ccc(C)nc2N)c1C | 6 nM | –

From patent publication US20090209554A1, “Thiazoliums as transketolase inhibitors” (ARRAY BIOPHARMA INC., priority 2004, published 2009)
